System: human prostate cancer cell LNCaP-FGC
Experiment: Prostate specific antigen (PSA) production inhibition in prostate cancer cell
Format: cell-based
Conditions: 72 h, 1 μM compound, testosterone 1 ng/mL, three days, PSA in culture supernatant by ELISA, testosterone non-added group 100%, testosterone-added group 0%, read-out: PSA production Inhibitory rate (%) at 1 μM
Description: A human prostate cancer cell LNCaP-FGC was inoculated on a 96-well plate at 5000 cells/100 μL/well and, on the next day, testosterone having the final concentration of 1 ng/mL and 1 μM of a compound were added. Three days after addition, the PSA concentration in the culture supernatant was measured by ELISA, and a PSA production inhibition rate was calculated, letting the rate of a testosterone non-added group to be 100%, and letting the rate of a testosterone-added group to be 0%.

Cc1c(C#N)c(-c2cccc(C#N)c2)c(C)n1Cc1cnc(Cl)c(CO)c1 [Compound 7, 1-{[6-Chloro-5-(hydroxymethyl)pyridin-3-yl]methyl}-4-(3-cyanophenyl)-2,5-dimethyl-1H-pyrrole-3-carbonitrile]
inhibition at 1 µM: 94%

Cc1cc(-c2ccc(C#N)cc2)c(C#N)n1Cc1cnc(Cl)c(CO)c1 [Example 52, 1-{[6-Chloro-5-(hydroxymethyl)pyridin-3-yl]methyl}-3-(4-cyanophenyl)-5-methyl-1H-pyrrole-2-carbonitrile]
inhibition at 1 µM: 99%

From patent US20080176906A1, “Substituted Pyrrole Derivative” (Takeda Pharmaceutical Company Limited, priority 2004, published 2008)
